Several values for one entry are separate records, joined by “and”; a condition that tells them apart may be missing. Equal entries are not always repeated. Inconclusive results and toxic doses are left out. No stated cut-off is given here; in the data, active means T/C of 150% or more; inactive means T/C below 125%.
Test system: L1210 leukemia ip in BDF1 mice, survival T/C
Test: NCI In Vivo Anticancer Drug Screen. Data for tumor model L1210 Leukemia (intraperitoneal) in B6D2F1 (BDF1) mice
Conditions: endpoint: mean survival time, higher = longer survival
Method in brief: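 Transplantable tumor model; survival measured in treated vs vehicle control mice. Value = treated/control.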

[1] = dose: 400.0 mg/kg/injection, schedule: Q04DX002 (ip), vehicle: saline with Tween-80
[2] = dose: 50.0 mg/kg/injection, schedule: Q01DX009 (ip), vehicle: Klucel (hydroxypropylcellulose) (HPC)
[3] = dose: 100.0 mg/kg/injection, schedule: Q04DX003 (ip), vehicle: Klucel (hydroxypropylcellulose) (HPC)
[4] = dose: 100.0 mg/kg/injection, schedule: Q01DX009 (ip), vehicle: saline with Tween-80
[5] = dose: 200.0 mg/kg/injection, schedule: Q01DX009 (ip), vehicle: saline with Tween-80
[6] = dose: 100.0 mg/kg/injection, schedule: Q01DX001 (ip), vehicle: saline
[7] = dose: 200.0 mg/kg/injection, schedule: Q01DX001 (ip), vehicle: saline
[8] = dose: 400.0 mg/kg/injection, schedule: Q01DX001 (ip), vehicle: saline
[9] = dose: 100.0 mg/kg/injection, schedule: Q04DX003 (ip), vehicle: saline with Tween-80
[10] = dose: 200.0 mg/kg/injection, schedule: Q04DX003 (ip), vehicle: saline with Tween-80
[11] = dose: 100.0 mg/kg/injection, schedule: Q01DX009 (ip), vehicle: Klucel (hydroxypropylcellulose) (HPC)
[12] = dose: 200.0 mg/kg/injection, schedule: Q01DX009 (ip), vehicle: Klucel (hydroxypropylcellulose) (HPC)

Measured: T/C

O=C(O)c1c(F)c(F)c(O)c(F)c1F
inactive: dose: 25.6 mg/kg/injection, schedule: Q04DX002 (ip), vehicle: saline with Tween-80 103 % of control | dose: 64.0 mg/kg/injection, schedule: Q04DX002 (ip), vehicle: saline with Tween-80 110 % of control | dose: 160.0 mg/kg/injection, schedule: Q04DX002 (ip), vehicle: saline with Tween-80 89 % of control | [1] 103 % of control

Fc1ccc(P(c2ccc(F)cc2)c2ccc(F)cc2)cc1
inactive: dose: 25.0 mg/kg/injection, schedule: Q01DX009 (ip), vehicle: Klucel (hydroxypropylcellulose) (HPC) 97 % of control | [2] 89 % of control | [3] 103 % of control

CCOC(C)C1C2CCCCC21 (configuration not stated)
inactive: [4] 101 % of control | [5] 92 % of control

CN(C)/N=C\c1cccc2ccccc12
inactive: dose: 100.0 mg/kg/injection, schedule: Q04DX002 (ip), vehicle: saline with Tween-80 96 % of control | dose: 200.0 mg/kg/injection, schedule: Q04DX002 (ip), vehicle: saline with Tween-80 92 % of control | [1] 92 % of control

CN(C)/N=N\c1nc[nH]c1C(=O)NN
inactive: dose: 50.0 mg/kg/injection, schedule: Q01DX001 (ip), vehicle: saline 107 % of control | [6] 101 % of control | [7] 107 % of control | [8] 110 % of control

CC/C(=N/N=C(N)N)C(=O)O
inactive: dose: 15.0 mg/kg/injection, schedule: Q01DX Z (ip), vehicle: carboxymethylcellulose (CMC) 102 % of control | dose: 30.0 mg/kg/injection, schedule: Q01DX Z (ip), vehicle: carboxymethylcellulose (CMC) 95 % of control | dose: 60.0 mg/kg/injection, schedule: Q01DX Z (ip), vehicle: carboxymethylcellulose (CMC) 103 % of control and 106 % of control | dose: 120.0 mg/kg/injection, schedule: Q01DX Z (ip), vehicle: carboxymethylcellulose (CMC) 96 % of control and 98 % of control | dose: 240.0 mg/kg/injection, schedule: Q01DX Z (ip), vehicle: carboxymethylcellulose (CMC) 100 % of control | dose: 480.0 mg/kg/injection, schedule: Q01DX Z (ip), vehicle: carboxymethylcellulose (CMC) 102 % of control

COc1ccc(C(C)N=CC(C)(C)C)cc1 (configuration not stated)
inactive: [9] 101 % of control | [10] 101 % of control

O=C(O)CCC1CCCCC1=O (configuration not stated)
inactive: [2] 104 % of control | dose: 50.0 mg/kg/injection, schedule: Q04DX003 (ip), vehicle: Klucel (hydroxypropylcellulose) (HPC) 98 % of control | [11] 95 % of control | [3] 97 % of control | [12] 98 % of control | dose: 200.0 mg/kg/injection, schedule: Q04DX003 (ip), vehicle: Klucel (hydroxypropylcellulose) (HPC) 98 % of control

S=P(Nc1ccccc1)(Nc1ccccc1)Nc1ccccc1
inactive: [2] 96 % of control | [11] 98 % of control | [12] 98 % of control

CCOC(=O)C(=O)c1ccccc1
inactive: [4] 100 % of control | [9] 96 % of control | [5] 103 % of control | [10] 103 % of control | dose: 400.0 mg/kg/injection, schedule: Q01DX009 (ip), vehicle: saline with Tween-80 97 % of control | dose: 400.0 mg/kg/injection, schedule: Q04DX003 (ip), vehicle: saline with Tween-80 103 % of control

CCOC(=O)N/N=C/c1ccccc1O
inactive: dose: 75.0 mg/kg/injection, schedule: Q01DX001 (ip), vehicle: carboxymethylcellulose (CMC) 103 % of control | dose: 150.0 mg/kg/injection, schedule: Q01DX001 (ip), vehicle: carboxymethylcellulose (CMC) 104 % of control | dose: 300.0 mg/kg/injection, schedule: Q01DX001 (ip), vehicle: carboxymethylcellulose (CMC) 97 % of control

Cc1cc(NCCN(C(C)C)C(C)C)nc(Nc2nc3ccc(Cl)cc3[nH]2)n1
inactive: dose: 12.5 mg/kg/injection, schedule: Q01DX009 (ip), vehicle: saline with Tween-80 98 % of control | dose: 50.0 mg/kg/injection, schedule: Q01DX009 (ip), vehicle: saline with Tween-80 91 % of control

O=C(O)c1ccccc1N1C(=O)c2ccccc2C1=O
inactive: [6] 91 % of control | [7] 96 % of control | [8] 94 % of control

Reference: PubChem BioAssay AID248 (DTP/NCI, 2004)
